Assays:
whole blood [1] = experiment: ROTEM whole blood coagulation with rabbit brain-derived tissue thromboplastin (TP) + Ca 12 mM (CTI 20 μg/mL, PKSI-527 40 μM where stated); type: cell-based; settings: for prolongation of blood coagulation by addition of rTM: Ex5-8, TP 0.9 μg/mL+Startem, FRAGMIN 0.2 U/mL or ARIXTRA 0.5 μg/mL instead of heparan sulfate, rTM 20 or 30 nM
whole blood [2] = experiment: ROTEM whole blood coagulation with dialyzed Dade Innovin (recombinant tissue factor) 0.569 μg/mL + Ca 12 mM + CTI 20 μg/mL + PKSI-527 40 μM; type: cell-based; settings: Ex28; for CT (clotting time): Innovin 0.569 μg/mL+Ca+CTI+PKSI-527, ARIXTRA 0.5 ug/mL
Method: ROTEM was used to analyze blood coagulation.
Blood was collected using a blood collection tube containing 3.2% sodium citrate manufactured by Terumo Corporation.
Blood coagulation was analyzed in the case of having added 4% (final concentration 0.569 μg/mL) of Dade Innovin (recombinant tissue factor: Sysmex Corporation) having being diluted by 50 times after dialysis, calcium chloride (Ca; final concentration 12 mM), heparan sulfate (final concentration 0 or 2 μg/mL), CTI (final concentration 20 μg/mL), PKSI-527 (final concentration 40 μM) without and with a soluble thrombomodulin (rTM: final concentration 30 nM) further having been added, as well as with an APC inhibitory aptamer (HS02-44G; final concentration 1 μM) in addition to 30 nM of soluble thrombomodulin.
Blood coagulation was analyzed in the case of having added 4% (final concentration 0.569 μg/mL) of 50-fold diluted Dade Innovin (recombinant tissue factor: Sysmex Corporation) after dialysis, calcium chloride (Ca; final concentration 12 mM), low molecular weight heparan (trade name FRAGMIN; Pfizer) (final concentration 0 or 0.2 U/mL), CTI (final concentration 20 μg/mL), and PKSI-527 (final concentration 40 μM) with and without a soluble thrombomodulin (rTM; final concentration 30 nM) further having been added, as well as with an APC inhibitory aptamer (HS02-44G; final concentration 1 μM) in addition to 30 nM soluble thrombomodulin.
ROTEM was used to analyze coagulation.
Blood coagulation was analyzed in the case of having added 4% (final concentration 0.569 μg/mL) of 50-fold diluted Dade Innovin (recombinant tissue factor: Sysmex Corporation) after dialysis, calcium chloride (Ca; final concentration 12 mM), ARIXTRA (final concentration 0 or […]), CTI (final concentration 20 μg/mL), and PKSI-527 (final concentration 40 μM), without and with thrombomodulin (rTM; final concentration 30 nM) further having been added, as well as with an APC inhibitory aptamer (HS02-44G; final concentration 1 μM) in addition to soluble thrombomodulin 30 nM.

[3] = unfractionated heparin 0.1 U/mL
[4] = Ex20, TP 16.6 μg/mL+Ca+CTI+PKSI-527, ARIXTRA 0.5 μg/mL, no rTM
[5] = Ex20, TP 16.6 μg/mL+Ca+CTI+PKSI-527, ARIXTRA 0.5 μg/mL, rTM 100 nM
[6] = Ex20, TP 16.6 μg/mL+Ca+CTI+PKSI-527, ARIXTRA 2.0 μg/mL, no rTM
[7] = Ex20, TP 16.6 μg/mL+Ca+CTI+PKSI-527, ARIXTRA 2.0 μg/mL, rTM 100 nM
[8] = Ex20, TP 16.6 μg/mL+Ca+CTI+PKSI-527, ARIXTRA 3.0 μg/mL, no rTM
[9] = Ex20, TP 16.6 μg/mL+Ca+CTI+PKSI-527, ARIXTRA 3.0 μg/mL, rTM 100 nM
[10] = Ex20, TP 16.6 μg/mL+Ca+CTI+PKSI-527, ARIXTRA 4.0 μg/mL, no rTM
[11] = Ex20, TP 16.6 μg/mL+Ca+CTI+PKSI-527, ARIXTRA 4.0 μg/mL, rTM 100 nM
[12] = Ex20, TP 16.6 μg/mL+Ca+CTI+PKSI-527, ARIXTRA 5.0 μg/mL, no rTM
[13] = Ex20, TP 16.6 μg/mL+Ca+CTI+PKSI-527, ARIXTRA 5.0 μg/mL, rTM 100 nM
[14] = Ex21, TP 0.64 μg/mL+Ca+CTI+PKSI-527, ARIXTRA 0.5 μg/mL, no rTM
[15] = Ex21, TP 0.64 μg/mL+Ca+CTI+PKSI-527, ARIXTRA 0.5 μg/mL, rTM 30 nM
[16] = Ex22, TP 0.055 μg/mL+Ca+CTI+PKSI-527, ARIXTRA 0.05 μg/mL, no rTM
[17] = Ex22, TP 0.055 μg/mL+Ca+CTI+PKSI-527, ARIXTRA 0.05 μg/mL, rTM 20 nM
[18] = Ex22, TP 0.055 μg/mL+Ca+CTI+PKSI-527, ARIXTRA 0.20 μg/mL, no rTM
[19] = Ex22, TP 0.055 μg/mL+Ca+CTI+PKSI-527, ARIXTRA 0.20 μg/mL, rTM 20 nM
[20] = Ex19, TP 16.6 μg/mL+Ca+CTI+PKSI-527, unfractionated heparin 0.1 U/mL, no rTM
[21] = Ex19, TP 16.6 μg/mL+Ca+CTI+PKSI-527, unfractionated heparin 0.1 U/mL, rTM 100 nM
[22] = Ex19, TP 16.6 μg/mL+Ca+CTI+PKSI-527, unfractionated heparin 0.2 U/mL, no rTM
[23] = Ex19, TP 16.6 μg/mL+Ca+CTI+PKSI-527, unfractionated heparin 0.2 U/mL, rTM 100 nM
[24] = Ex19, TP 16.6 μg/mL+Ca+CTI+PKSI-527, unfractionated heparin 0.3 U/mL, no rTM
[25] = Ex19, TP 16.6 μg/mL+Ca+CTI+PKSI-527, unfractionated heparin 0.3 U/mL, rTM 100 nM

For `CO[C@H]1O[C@H](COS(=O)(=O)O)[C@@H](O[C@@H]2O[C@@H](C(=O)O)[C@@H](O[C@H]3O[C@H](COS(=O)(=O)O)[C@@H](O[C@@H]4O[C@H](C(=O)O)[C@@H](O[C@H]5O[C@H](COS(=O)(=O)O)[C@@H](O)[C@H](O)[C@H]5NS(=O)(=O)O)[C@H](O)[C@H]4O)[C@H](OS(=O)(=O)O)[C@H]3NS(=O)(=O)O)[C@H](O)[C@H]2OS(=O)(=O)O)[C@H](O)[C@H]1NS(=O)(=O)O` [ARIXTRA, fondaparinux sodium], the “prolongation of blood coagulation by addition of rTM” value (whole blood [1]; [3]) was “markedly prolonged”, the CT values (whole blood [1]; Ex20, TP 16.6 μg/mL+Ca+CTI+PKSI-527, ARIXTRA 0, 0.5 μg/mL, no rTM) was < 1 min and the “CFT (clot formation time)” value (whole blood [1]; [4]) was 86 s. For the same compound, the “CT (clotting time)” value (whole blood [1]; [4]) was 52 s, the “CFT (clot formation time)” value (whole blood [1]; [5]) was 69 s and the “CT (clotting time)” value (whole blood [1]; [5]) was 68 s. The “CFT (clot formation time)” value (whole blood [1]; [6]) was 64.0 s, the “CT (clotting time)” value (whole blood [1]; [6]) was 64 s and the “CFT (clot formation time)” value (whole blood [1]; [7]) was 61 s. For the same compound, the “CT (clotting time)” value (whole blood [1]; [7]) was 96 s, the “CFT (clot formation time)” value (whole blood [1]; [8]) was 78.0 s and the “CT (clotting time)” value (whole blood [1]; [8]) was 72 s. The “CFT (clot formation time)” value (whole blood [1]; [9]) was 68 s, the “CT (clotting time)” value (whole blood [1]; [9]) was 112 s and the “CFT (clot formation time)” value (whole blood [1]; [10]) was 70.0 s. For the same compound, the “CT (clotting time)” value (whole blood [1]; [10]) was 75 s, the “CFT (clot formation time)” value (whole blood [1]; [11]) was 77 s and the “CT (clotting time)” value (whole blood [1]; [11]) was 118 s. The “CFT (clot formation time)” value (whole blood [1]; [12]) was 77.0 s, the “CT (clotting time)” value (whole blood [1]; [12]) was 78 s and the “CFT (clot formation time)” value (whole blood [1]; [13]) was 105 s. For the same compound, the “CT (clotting time)” value (whole blood [1]; [13]) was 114 s, the “CFT (clot formation time)” value (whole blood [1]; [14]) was 74 s and the “CT (clotting time)” value (whole blood [1]; [14]) was 294 s. For the same compound, the “CFT (clot formation time)” value (whole blood [1]; [15]) was 794 s, the “CT (clotting time)” value (whole blood [1]; [15]) was 581 s and the “CFT (clot formation time)” value (whole blood [1]; [16]) was 145 s. For the same compound, the “CT (clotting time)” value (whole blood [1]; [16]) was 619 s, the “CFT (clot formation time)” value (whole blood [1]; [17]) was 403 s and the “CT (clotting time)” value (whole blood [1]; [17]) was 1074 s. The “CFT (clot formation time)” value (whole blood [1]; [18]) was 232 s, the “CT (clotting time)” value (whole blood [1]; [18]) was 799 s and the blood clotting time (whole blood [1]; Ex22, TP 0.055 μg/mL+Ca+CTI+PKSI-527, ARIXTRA 0.2 μg/mL, rTM 20 nM) was ≥ 1 h. The “CFT (clot formation time)” value (whole blood [1]; [19]) was “No CFT”, the “CT (clotting time)” value (whole blood [1]; [19]) was “No CT” and the “CT (clotting time)” value (whole blood [2]; no rTM) was 466 s. For the same compound, the “CT (clotting time)” value (whole blood [2]; rTM 30 nM) was 996 s, the “CT (clotting time)” value (whole blood [2]; rTM 30 nM+APC inhibitory aptamer 1 μM) was 474 s and the “anticoagulation ability of the soluble thrombomodulin” value (whole blood [2]; addition of ARIXTRA 0.5 μg/mL, rTM 30 nM) was “markedly enhanced”.
For Unfractionated heparin, the “prolongation of blood coagulation by addition of rTM” value (whole blood [1]; [3]) was “markedly prolonged”, the “CFT (clot formation time)” value (whole blood [1]; [20]) was 98 s and the “CT (clotting time)” value (whole blood [1]; [20]) was 53 s. The “CFT (clot formation time)” value (whole blood [1]; [21]) was 93 s, the “CT (clotting time)” value (whole blood [1]; [21]) was 66 s and the “CFT (clot formation time)” value (whole blood [1]; [22]) was 82.0 s. For the same compound, the “CT (clotting time)” value (whole blood [1]; [22]) was 73 s, the “CFT (clot formation time)” value (whole blood [1]; [23]) was 102 s and the “CT (clotting time)” value (whole blood [1]; [23]) was 89 s. For the same compound, the “CFT (clot formation time)” value (whole blood [1]; [24]) was 86.0 s, the “CT (clotting time)” value (whole blood [1]; [24]) was 69 s and the “CFT (clot formation time)” value (whole blood [1]; [25]) was 161 s. For the same compound, the “CT (clotting time)” value (whole blood [1]; [25]) was 182 s.
